Reference: US20260184725A1, “CYCLIC 2-AMINOPYRIMIDINE COMPOUND AND PHARMACEUTICAL COMPOSITION AND USE THEREOF” (SHANGHAI INSTITUTE OF ORGANIC CHEMISTRY, CHINESE ACADEMY OF …, priority 2023, published 2026)
Where two headings read alike, the source gives them in different places.

What was measured:
BaF3 parent cell = test: CCK-8 cell proliferation, BaF3 parent cell; type: cell-based; conditions: Mus musculus, read-out: Average value of IC50 of inhibition against cells growth, BaF3 parent cell
Description: (§1) Ba/F3 cells were obtained from Deutsche Sammlung von Mikroorganismen und Zellkulturen GmbH (DSMZ). Ba/F3 cells stably expressing EGFR19del/T790M/C797S or EGFR L858R/T790M/C797S were generated by infecting parental cells with corresponding retroviruses. PC-9-OR was a tumor cell model obtained by simultaneously knocking in T790M and C797S mutations into 19del-activating mutation-dependent PC-9 tumor cells using CRISPR technology. This model, which proliferated dependent on EGFR19del/T790M/C797S resistance mutation, was used to evaluate the inhibitory activity of compounds against EGFR19del/T790M/C797S resistance mutants (Cancer Science. 2022; 113:709-720). All cells used in the study were verified by short tandem repeat (STR) analysis conducted by Genesky.
(§2) Tumor cell viability was assessed using a CCK-8 cell counting kit (A311-01/02, Vazyme, Nanjing, China). Cells were seeded at a density of 3000 cells per well into 96-well plates and cultured overnight. Subsequently, the cells were treated with compounds of different concentrations and incubated for 72 hours. After 72 hours, 10 μL of CCK-8 solution was added to each well. The plates were then returned to the incubator and incubated at 37° C. for 2 hours. The absorbance was measured at 450 nm using a microplate reader. A calibration curve was constructed using data obtained from wells containing known numbers of viable cells.

[1] = molecular target: BaF3-EGFR (19del/T790M/C797S) (Homo sapiens, UniProt P00533, T790M/C797S, cells depend on it, form not given); test: CCK-8 cell proliferation, BaF3-EGFR(19del/T790M/C797S); type: cell-based; conditions: CCK-8, 72 hours; read-out: Average value of IC50 of inhibition against EGFR-mutant cells growth, BaF3-EGFR (19del/T790M/C797S)
BaF3-EGFR (19del/T790M/C797S), sequence (P00533 with tags, fused parts or gaps DEL746-750/T790M/C797S, form open): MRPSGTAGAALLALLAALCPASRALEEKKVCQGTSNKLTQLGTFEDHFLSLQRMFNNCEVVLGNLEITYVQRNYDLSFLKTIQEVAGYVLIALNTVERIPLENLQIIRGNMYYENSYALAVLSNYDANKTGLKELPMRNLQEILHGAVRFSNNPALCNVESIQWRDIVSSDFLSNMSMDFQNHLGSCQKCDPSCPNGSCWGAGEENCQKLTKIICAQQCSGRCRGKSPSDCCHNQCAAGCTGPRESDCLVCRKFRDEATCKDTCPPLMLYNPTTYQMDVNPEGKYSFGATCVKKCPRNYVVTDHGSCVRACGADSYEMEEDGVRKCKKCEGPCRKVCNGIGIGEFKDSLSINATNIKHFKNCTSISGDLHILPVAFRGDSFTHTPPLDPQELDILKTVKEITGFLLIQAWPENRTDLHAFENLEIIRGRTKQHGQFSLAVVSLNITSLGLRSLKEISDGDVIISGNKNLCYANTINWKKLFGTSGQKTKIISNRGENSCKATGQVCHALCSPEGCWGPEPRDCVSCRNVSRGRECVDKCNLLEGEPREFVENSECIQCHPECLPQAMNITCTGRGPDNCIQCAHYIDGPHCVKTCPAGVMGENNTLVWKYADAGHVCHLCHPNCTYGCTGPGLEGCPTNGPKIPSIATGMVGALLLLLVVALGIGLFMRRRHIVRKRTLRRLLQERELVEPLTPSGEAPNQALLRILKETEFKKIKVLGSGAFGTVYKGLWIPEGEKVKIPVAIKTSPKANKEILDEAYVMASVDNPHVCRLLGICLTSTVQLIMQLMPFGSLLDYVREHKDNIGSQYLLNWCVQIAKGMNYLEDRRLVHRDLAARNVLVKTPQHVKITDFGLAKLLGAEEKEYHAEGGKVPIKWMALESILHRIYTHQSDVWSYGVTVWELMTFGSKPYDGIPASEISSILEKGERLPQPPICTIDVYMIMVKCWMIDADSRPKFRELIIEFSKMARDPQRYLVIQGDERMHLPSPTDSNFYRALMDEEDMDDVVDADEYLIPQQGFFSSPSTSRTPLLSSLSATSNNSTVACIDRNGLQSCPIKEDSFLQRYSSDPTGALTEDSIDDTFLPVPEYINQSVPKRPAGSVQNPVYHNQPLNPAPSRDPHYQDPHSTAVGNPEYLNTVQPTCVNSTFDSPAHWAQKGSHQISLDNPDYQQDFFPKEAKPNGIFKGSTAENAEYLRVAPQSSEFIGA
Protocol: (§3) Ba/F3 cells were obtained from Deutsche Sammlung von Mikroorganismen und Zellkulturen GmbH (DSMZ). […] All cells used in the study were verified by short tandem repeat (STR) analysis conducted by Genesky.
as §2

[2] = test system: PC-9-OR (19del/T790M/C797S); test: CCK-8 cell proliferation, PC-9-OR; type: cell-based; conditions: PC9-OR, read-out: Average value of IC50 of inhibition against EGFR-mutant cells growth, PC-9-OR (19del/T790M/C797S)
Description: as §1, §2

[3] = molecular target: BaF3-EGFR (L858R/T790M/C797S) (Homo sapiens, UniProt P00533, T790M/C797S/L858R, cells depend on it); test: CCK-8 cell proliferation, BaF3-EGFR(L858R/T790M/C797S); type: cell-based; conditions: CCK-8, 72 hours; read-out: Average value of IC50 of inhibition against EGFR-mutant cells growth, BaF3-EGFR (L858R/T790M/C797S)
Protocol: as §3, §2

EGFR^L858R/T790M/C797S = EGFR^L858R/T790M/C797S (Homo sapiens, UniProt P00533, C797S/L858R/T790M); test: ELISA kinase activity inhibition, EGFR L858R/T790M/C797S; type: biochemical; conditions: ATP 5 μM, read-out: The average IC50 value (nM) for inhibiting the activity of different tyrosine kinases, EGFR^L858R/T790M/C797S
EGFR^L858R/T790M/C797S, sequence (P00533 25-1210 T790M/C797S/L858R): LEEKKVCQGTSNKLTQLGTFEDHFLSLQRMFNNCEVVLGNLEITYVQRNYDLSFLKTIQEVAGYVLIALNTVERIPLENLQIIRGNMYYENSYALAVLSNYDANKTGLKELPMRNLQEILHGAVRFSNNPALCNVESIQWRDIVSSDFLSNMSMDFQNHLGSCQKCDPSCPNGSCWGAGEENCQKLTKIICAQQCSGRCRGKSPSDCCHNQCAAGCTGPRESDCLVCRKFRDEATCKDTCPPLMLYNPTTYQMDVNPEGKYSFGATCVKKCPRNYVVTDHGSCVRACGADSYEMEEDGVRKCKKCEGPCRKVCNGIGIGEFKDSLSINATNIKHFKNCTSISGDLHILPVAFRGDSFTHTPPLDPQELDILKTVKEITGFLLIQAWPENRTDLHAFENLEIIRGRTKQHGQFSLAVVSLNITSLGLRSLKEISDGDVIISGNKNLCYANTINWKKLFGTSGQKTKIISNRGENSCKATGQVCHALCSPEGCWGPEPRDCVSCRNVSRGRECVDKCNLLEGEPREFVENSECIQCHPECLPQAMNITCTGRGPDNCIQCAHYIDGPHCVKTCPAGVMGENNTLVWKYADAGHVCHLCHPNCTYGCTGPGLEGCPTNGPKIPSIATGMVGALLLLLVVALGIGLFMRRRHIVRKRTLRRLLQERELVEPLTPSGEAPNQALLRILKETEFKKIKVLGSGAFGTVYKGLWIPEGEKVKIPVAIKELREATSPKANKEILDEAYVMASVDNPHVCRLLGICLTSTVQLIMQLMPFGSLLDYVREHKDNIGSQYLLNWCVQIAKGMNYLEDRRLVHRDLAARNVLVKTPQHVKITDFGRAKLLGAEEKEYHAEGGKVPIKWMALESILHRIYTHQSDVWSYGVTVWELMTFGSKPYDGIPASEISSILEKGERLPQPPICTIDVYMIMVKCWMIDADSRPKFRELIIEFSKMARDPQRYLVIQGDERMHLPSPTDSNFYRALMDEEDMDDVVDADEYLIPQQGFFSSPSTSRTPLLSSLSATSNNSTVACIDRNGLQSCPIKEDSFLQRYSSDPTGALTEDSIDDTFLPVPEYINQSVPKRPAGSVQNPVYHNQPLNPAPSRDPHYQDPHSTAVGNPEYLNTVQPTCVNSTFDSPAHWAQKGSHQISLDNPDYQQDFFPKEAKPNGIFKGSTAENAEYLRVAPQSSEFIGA
Protocol: (§4) Enzyme-Linked Immunosorbent Assay (ELISA) was used to detect the inhibitory effect of compounds on kinase activity.
(§5) The main experimental steps were as follows: Enzyme reaction substrate Poly (Glu, Tyr)4:1 was diluted with potassium free PBS (10 mM sodium phosphate buffer, 150 mM NaCl, pH 7.2-7.4) to 20 μg/mL, and reacted at 37° C. for 12 hours to 16 hours to coat the enzyme-linked immunosorbent assay plate. ATP solution (final concentration 5 μM) diluted with reaction buffer (50 mM HEPES pH 7.4, 50 mM MgCl2, 0.5 mM MnCl2, 0.2 mM Na3VO4, 1 mM DTT) was added to each well, followed by the test compound or solvent control, then the kinase reaction was initiated and the plate was shaken at 37° C. for 1 hour. The plate was washed three times with T-PBS, then added antibody PY99. The plate was shaken at 37° C. for 0.5 hours. After washing the plate with T-PBS, added horseradish peroxidase-labeled IgG and shaken at 37° C. for 0.5 hours. After washing the plate again, added 2 mg/mL of OPD colorimetric solution and incubated at 25° C. in the dark for 1 minutes to 10 minutes. […] The IC50 values were obtained from the inhibition curve analysis.

EGFR^WT = molecular target: T1, EGFR^WT (Homo sapiens, UniProt P00533); test: ELISA kinase activity inhibition, wild-type EGFR; type: biochemical; conditions: ATP 5 μM, read-out: The average IC50 value (nM) for inhibiting the activity of different tyrosine kinases, EGFR^WT
T1 construct: purchased Eurofins
T1 sequence (P00533 25-1210): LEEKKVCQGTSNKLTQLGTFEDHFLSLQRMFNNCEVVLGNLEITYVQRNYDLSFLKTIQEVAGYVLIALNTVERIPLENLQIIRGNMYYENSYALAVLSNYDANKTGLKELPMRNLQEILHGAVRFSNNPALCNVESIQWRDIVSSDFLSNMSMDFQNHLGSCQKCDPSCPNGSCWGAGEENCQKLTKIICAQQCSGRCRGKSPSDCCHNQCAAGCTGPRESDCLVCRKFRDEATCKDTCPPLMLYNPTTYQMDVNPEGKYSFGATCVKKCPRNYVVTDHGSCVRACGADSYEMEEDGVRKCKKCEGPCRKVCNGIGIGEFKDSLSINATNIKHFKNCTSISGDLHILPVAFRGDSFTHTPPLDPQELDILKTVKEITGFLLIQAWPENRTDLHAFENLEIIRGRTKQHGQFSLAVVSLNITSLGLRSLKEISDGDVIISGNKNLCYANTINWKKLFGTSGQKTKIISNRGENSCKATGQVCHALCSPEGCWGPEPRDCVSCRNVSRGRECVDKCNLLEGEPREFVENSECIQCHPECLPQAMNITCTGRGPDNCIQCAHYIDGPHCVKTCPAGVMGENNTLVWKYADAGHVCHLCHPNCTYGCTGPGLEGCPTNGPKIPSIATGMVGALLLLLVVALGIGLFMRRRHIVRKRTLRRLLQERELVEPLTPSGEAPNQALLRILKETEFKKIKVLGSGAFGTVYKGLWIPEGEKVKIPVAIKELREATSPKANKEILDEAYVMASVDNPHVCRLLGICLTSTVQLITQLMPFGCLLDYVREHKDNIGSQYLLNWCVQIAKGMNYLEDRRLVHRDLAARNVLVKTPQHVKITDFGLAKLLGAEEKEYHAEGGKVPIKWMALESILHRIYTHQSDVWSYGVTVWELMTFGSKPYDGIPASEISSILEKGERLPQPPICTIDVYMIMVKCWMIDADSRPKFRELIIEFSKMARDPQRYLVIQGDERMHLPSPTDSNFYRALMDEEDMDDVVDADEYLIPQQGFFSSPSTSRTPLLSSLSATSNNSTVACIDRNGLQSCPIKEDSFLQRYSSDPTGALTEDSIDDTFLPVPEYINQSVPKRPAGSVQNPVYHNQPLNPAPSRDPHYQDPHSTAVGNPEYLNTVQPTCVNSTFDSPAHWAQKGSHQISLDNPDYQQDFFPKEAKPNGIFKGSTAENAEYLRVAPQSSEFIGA
Protocol: (§6) EGFR (WT) is a wild-type epidermal growth factor receptor.
as §4, §5

EGFR^19del/T790M/C797S = molecular target: T2, EGFR^19del/T790M/C797S (Homo sapiens, UniProt P00533, T790M/C797S, form not given); test: ELISA kinase activity inhibition, EGFR 19del/T790M/C797S; type: biochemical; conditions: ATP 5 μM, read-out: The average IC50 value (nM) for inhibiting the activity of different tyrosine kinases, EGFR^19del/T790M/C797S
T2 construct: fused on or other part: Probably a GST tag on the cytoplasmic fragment, as in the vendor's product
T2 sequence (P00533 with tags, fused parts or gaps DEL746-750/T790M/C797S, form open): as the sequence (P00533 with tags, fused parts or gaps DEL746-750/T790M/C797S, form open) above
Protocol: as §6, §4, §5

[4] = Pharmacokinetic parameters in rats; type: in vivo; conditions: male, Sprague-Dawley, plasma, rat
Protocol: Sprague-Dawley rats (males, 3 per group), weighing 180 g to 220 g, were administered test compounds intravenously and orally at doses of 1 mg/kg and 5 mg/kg, respectively. The compounds were dissolved in a mixed solvent (5% DMSO+10% Solutol+85% PBS) for intravenous injection. 0.5% CMC-Na solution (800 cps to 1200 cps) was used as a suspension agent for oral administration. At designated time points, 0.2 mL of blood samples were collected via the jugular vein and placed into tubes containing K2-EDTA, stored on ice, and then centrifuged. Sampling intervals for the injection group were 0.083, 0.25, 0.5, 1, 2, 4, 8, and 24 hours, while for the oral group, sampling intervals were 0.25, 0.5, 1, 2, 4, 6, 8, and 24 hours. The blood samples were centrifuged at 6800 g for 6 minutes at 2° C. to 8° C. within 1 hour after collection and stored frozen at approximately −80° C. Subsequently, 200 μL of MeOH was used to precipitate 20 μL of plasma samples containing 100 ng/mL IS. The mixture was vortexed for 1 minute and then centrifuged at 18000 g for 7 minutes. 200 μL of the supernatant was transferred to a 96-well plate, and 1 μL of the supernatant sample was injected for LC-MS/MS analysis. Finally, Phoenix WinNonlin7.0 software was used to calculate the pharmacokinetic (PK) parameters.

| SMILES | GI50 [1] [nM] | GI50 [3] [nM] | IC50 (EGFR^L858R/T790M/C797S) [nM] | IC50 (BaF3 parent cell; BaF3, CCK-8, 72 hours) [nM] | IC50 (EGFR^WT) [nM] | IC50 ([2]; CCK-8, 72 hours) [nM] | IC50 (EGFR^19del/T790M/C797S) [nM] | Cmax ([4]; IV 1 mg/kg) [ng/mL] | clearance ([4]; IV 1 mg/kg) [mL/min/kg] | half-life ([4]; IV 1 mg/kg) [min] | Cmax ([4]; PO 5 mg/kg) [ng/mL] | half-life ([4]; PO 5 mg/kg) [min] | bioavailability ([4]; PO 5 mg/kg, read-out: F (oral bioavailability)) [%] | IC50 (BaF3 parent cell; BaF3, 72 h) [nM] | IC50 ([2]; 72 h) [nM] |
| --- | --- | --- | --- | --- | --- | --- | --- | --- | --- | --- | --- | --- | --- | --- | --- |
| COc1cc(N2CCC(N3CCN(C)CC3)CC2)ccc1Nc1ncc(Cl)c(Nc2ccccc2P(C)(C)=O)n1 [Brigatinib, reference compound] | 221 | 777 | – | – | – | – | – | – | – | – | – | – | – | 1480 | 1450 |
| CCS(=O)(=O)n1cc2c3ccc(cc31)OCCCn1cc(cn1)-c1cc(ccc1N1CCOCC1)Nc1ncc(Cl)c-2n1 [HC871, (Z)-2^5-Chloro-1^1-(ethylsulfonyl)-4^4-morpholino-1^1H,5^1H-9-oxa-3-aza-1(3,6)-indola-2(4,2)-pyrimidina-5(4,1)-pyrazola-4(1,3)-benzenacyclononaphane] | 70 | 74 | 4.9 | 217 | > 1000 | 85 | 6.3 | – | – | – | – | – | – | – | – |
| CCS(=O)(=O)n1cc2c3ccc(cc31)OCCCn1cc(cn1)-c1cc(ccc1N1CCOCC1)Nc1nccc-2n1 [HC950, 1^1-ethylsulfonyl-4^6-methyl-4^4-(4-methylpiperazin-1-yl)-1^1H,5^1H-9-oxa-3-aza-1(3,6)-indole-2(4,2)-pyrimidine-5(4,1)-pyrazole-4(1,3)-benzenacyclononaphane] | 170 | 336 | 0.4 | 950 | 111 | 149 | 4.3 | – | – | – | – | – | – | – | – |
| CCS(=O)(=O)n1cc2c3ccc(cc31)OCCCn1cc(cn1)-c1cc(c(C)cc1N1CCOCC1)Nc1nccc-2n1 [HC950M, (Z)-1^1-Ethylsulfonyl-4^6-methyl-4^4-morpholino-1^1H,5^1H-9-oxa-3-aza-1 (3,6)-indole-2(4,2)-pyrimidine-5(4,1) pyrazol-4(1,3)-benzenacyclononaphane] | 86 | 108 | 1.9 | 445 | 37.6 | 149 | 7.3 | – | – | – | – | – | – | – | – |
| CCS(=O)(=O)n1cc2c3ccc(cc31)OCCCCn1cc(cn1)-c1cc(ccc1N1CCOCC1)Nc1ncc(Cl)c-2n1 [HC8714, 2^5-Chloro-1^1-Ethylsulfonyl-4^4-morpholino-1^1H,5^1H-10-oxa-3-aza-1(3,6)-Indole-2(4,2)-Pyrimidin-5(4,1)-Pyrazol-4(1,3)-Phenyldecane] | 91 | 75 | 9.3 | 274 | 802 | 155 | 2.7 | – | – | – | – | – | – | – | – |

Now from value to molecule, other results behind:

| GI50 [1] [nM] | GI50 [3] [nM] | IC50 (EGFR^L858R/T790M/C797S) [nM] | IC50 (BaF3 parent cell; BaF3, CCK-8, 72 hours) [nM] | IC50 (EGFR^WT) [nM] | IC50 ([2]; CCK-8, 72 hours) [nM] | IC50 (EGFR^19del/T790M/C797S) [nM] | Cmax ([4]; IV 1 mg/kg) [ng/mL] | clearance ([4]; IV 1 mg/kg) [mL/min/kg] | half-life ([4]; IV 1 mg/kg) [min] | Cmax ([4]; PO 5 mg/kg) [ng/mL] | half-life ([4]; PO 5 mg/kg) [min] | bioavailability ([4]; PO 5 mg/kg, read-out: F (oral bioavailability)) [%] | SMILES | IC50 (BaF3 parent cell; BaF3, 72 h) [nM] | IC50 ([2]; 72 h) [nM] |
| --- | --- | --- | --- | --- | --- | --- | --- | --- | --- | --- | --- | --- | --- | --- | --- |
| 429 | 325 | 1 | 3290 | 342 | 531 | 3.4 | – | – | – | – | – | – | Cc1cc(N2CCOCC2)c2cc1Nc1ncc(Cl)c(n1)-c1c[nH]c3cc(ccc13)OCCCn1cc-2cn1 [HC8990, 2^5-Chloro-4^6-Methyl-4^4-morpholino-1^1H,5^1H-9-oxa-3-aza-1(3,6)-Indole-2(4,2)-Pyrimidin-5(4,1)Pyrazol-4(1,3)-benzenacyclononaphane] | – | – |
| 472 | 591 | 4.3 | 1790 | 44.7 | 81 | 4.3 | – | – | – | – | – | – | CCS(=O)(=O)n1cc2c3ccc(cc31)OCCCn1cc(cn1)-c1cc(c(C)cc1N1CCN(C)CC1)Nc1ncc(Cl)c-2n1 [HC9452, 2^5-chloro-1^1-ethylsulfonyl-4^6-methyl-4^4-(4-methylpiperazin-1-yl)-1^1H,5^1H-9-oxa-3-aza-1(3,6)-indole-2(4,2)-pyrimidine-5(4,1)-pyrazole-4(1,3)-benzenacyclononaphane] | – | – |
| 189 | 301 | 2 | 1820 | 632 | 269 | 1.7 | 1570 ± 220 | 9.2 ± 2.1 | 426 ± 57 | 330 ± 56.5 | 487.8 ± 4.8 | 39.6 ± 9 | CCS(=O)(=O)n1cc2c3ccc(cc31)OCCCn1cc(cn1)-c1cc(c(OC)cc1N1CCOCC1)Nc1nccc-2n1 [HC9591, (Z)-1^1-Ethylsulfonyl-4^6-methoxy-4^4-morpholin-1^1H,5^1H-9-oxa-3-aza-1 (3,6)-indole-2(4,2)-pyrimidine-5(4,1) pyrazole-4(1,3)-benzenacyclononaphane] | – | – |
| 1220 | 735 | 2.2 | > 10000 | 112 | 925 | 1.7 | – | – | – | – | – | – | CCS(=O)(=O)n1cc2c3ccc(cc31)OCCCn1cc(cn1)-c1cc(c(OC)cc1N1CCC(N3CCN(C)CC3)CC1)Nc1nccc-2n1 [HC9594, (Z)-1^1-ethylsulfonyl-4^6-methoxy-4^4-(4-methylpiperazin-1-yl) piperidin-1-yl)-1^1H,5^1H-9-oxa-3-aza-1(3,6)-indole-2(4,2)-pyrimidine-5(4,1)-pyrazolol-4(1,3)-benzenacyclononaphane] | – | – |
